The results in this text go back to patent EP1071665B1, “SUBSTITUTED INDOLINONES HAVING AN INHIBITING EFFECT ON KINASES AND CYCLINE/CDK COMPLEXES” (Boehringer Ingelheim Pharma GmbH & Co.KG, priority 1998, dated 1999).

Structures are written as SMILES.

The test concerns Leiomyosarcoma Tumorzell-Linie SK-UT-1B. The experiment in a line: Test 2: inhibition of proliferation of cultured human tumour cells (14C-thymidine incorporation). It counts as cell-based. The note with it: Skut1B, SK-UT-1B cells, 48 h incubation with compound, then a further 24 h with 14C-thymidine, measured in duplicate, read-out: Hemmung der SKUT-1B-Proliferation IC50. The source says: Inhibierung der Profileration von kultivierten humanen Tumorzellen
Zellen der Leiomyosarcoma Tumorzell-Linie SK-UT-1B (erhalten von der American Type Culture Collection (ATCC)) wurden in Minimum Essential Medium mit nicht essentiellen Aminosäuren (Gibco), ergänzt mit Natrium-Pyruvat (1 mMol), Glutamin (2 mMol) und 10% fötalem Rinderserum (Gibco) kultiviert und in der log-Wachstumsphase geerntet. Anschließend wurden die SK-UT-1B-Zellen in Cytostar® multi-well Platten (Amersham) mit einer Dichte von 4000 cells per well eingebracht und über Nacht in einem Inkubator inkubiert. Verschiedene Konzentrationen der Verbindungen (gelöst in DMSO; Endkonzentration: <1%) wurden zu den Zellen zugegeben. Nach 48 Stunden Inkubation wurde ^14C-Thymidin (Amersham) zu jedem well zugesetzt, und es wurde weitere 24 Stunden inkubiert. Die Menge an ^14C-Thymidin, die in Gegenwart des Inhibitors in die Tumorzellen eingebaut wurde und die die Zahl der Zellen in der S-Phase repräsentiert, wurde in einem Wallace 1450 Microbeta Flüssig Scintillations Zähler gemessen. IC50-Werte für die Inhibierung der Proliferation (= Inhibierung von eingebautem ^14C-Thymidin) wurden - unter Korrektur für die Hintergrundstrahlung - berechnet. Alle Messungen wurden zweifach ausgeführt.
(In general: Uptake of a labelled nucleoside into DNA is a usual measure of proliferation.)
With `CCCCNCc1ccc(N/C(=C2\C(=O)Nc3ccc(C(N)=O)cc32)c2ccccc2)cc1` [4(120), 3-2-[1-(4-(N-Butyl-aminomethyl)-phenylamino)-1-phenylmethylen]-5-amido-2-indolinon-trifluoracetat], the IC50 worked out at 40 nM. Turning to `NC(=O)c1ccc2c(c1)/C(=C(/Nc1ccc(CNCc3ccccc3)cc1)c1ccccc1)C(=O)N2` [4(122), 3-Z-[1-(4-(N-(Phenyl-methyl)-aminomethyl)-phenylamino)-1-phenyl-methylen]-5-amido-2-indolinon-trifluoracetat], the IC50 worked out at 40 nM. Regarding `CCN(CC)CCCOc1ccc(N/C(=C2\C(=O)Nc3ccc(C(N)=O)cc32)c2ccccc2)cc1` [4(129), 3-Z-[1-(4-(3-Diethylamino-propoxy)-phenylamino)-1-phenylmethylen] -5-amido-2-indolinon-trifluoracetat], the IC50 stood at 40 nM. Then `NC(=O)c1ccc2c(c1)/C(=C(/Nc1ccccc1)c1ccccc1)C(=O)N2` [Beispiel 4(2), 3-Z-(1-Phenylamino-1-phenyl-methylen)-5-amido-2-indolinon], with 170 nM; and `NC(=O)c1ccc2c(c1)/C(=C(/Nc1ccc(Br)cc1)c1ccccc1)C(=O)N2` [Beispiel 4(14), 3-Z-[1-(4-Brom-phenylamino)-1-phenyl-methylen]-5-amido-2-indolinon], with 180 nM. Then `NC(=O)c1ccc2c(c1)/C(=C(/Nc1ccc(CN3CCCCC3)cc1)c1ccccc1)C(=O)N2` [Beispiel 4(53), 3-Z-[1-(4-Piperidinomethyl-phenylamino)-1-phenyl-methylen] -5-amido-2-indolinon-trifluoracetat], with 10 nM; and `NC(=O)c1ccc2c(c1)/C(=C(/Nc1ccc(CN3CCCCCC3)cc1)c1ccccc1)C(=O)N2` [Beispiel 4(54), 3-Z-[1-(4-Hexamethyleniminomethyl-phenylamino)-1-phenylmethylen]-5-amido-2-indolinon-trifluoracetat], with 30 nM; and `NC(=O)c1ccc2c(c1)/C(=C(/Nc1ccc(CN3CCC(Cc4ccccc4)CC3)cc1)c1ccccc1)C(=O)N2` [Beispiel 4(60), 3-Z-[1-(4-(4-Benzyl-piperidinomethyl)-phenylamino)-1-phenyl-methylen]-5-amido-2-indolinon], with 30 nM. For `CN(C)Cc1ccc(N/C(=C2\C(=O)Nc3ccc(C(N)=O)cc32)c2ccccc2)cc1` [Beispiel 4(62), 3-Z-[1-(4-Dimethylaminomethyl-phenylamino)-1-phenyl-methylen]-5-amido-2-indolinon], the IC50 was 50 nM.

Consider `CN(Cc1ccccc1)Cc1ccc(N/C(=C2\C(=O)Nc3ccc(C(N)=O)cc32)c2ccccc2)cc1` [Beispiel 4(94), 3-Z-[1-(4-(N-Methyl-N-benzyl-amino-methyl)-phenylamino)-1-phenyl-methylen]-5-amido-2-indolinon-trifluoracetat], for which the IC50 was 30 nM.
